# Measured values as given in the kinase profiling compilation of Christmann-Franck et al. (2016).
# Legend:
# Assay in all cases: radiometric filter-binding kinase assay, Kinaseprofiler
# PASK (human) = PASK (human) (UniProt Q96RG2); settings: compound 1.0 µM; ATP 15 µM
# PRKCE (human) = PRKCE (human) (UniProt Q02156); settings: compound 1.0 µM; ATP 45 µM
# [1] = tested on: SGK2 (human), Q9HBY8 [S416D]; settings: compound 1.0 µM; ATP 15 µM
# HCK (human) = HCK (human) (UniProt P08631); settings: compound 1.0 µM; ATP 70 µM
# MAP3K9 (human) = MAP3K9 (human) (UniProt P80192); settings: compound 1.0 µM; ATP 45 µM
# CDK5 CDK5R1 p35 (human) = CDK5 CDK5R1 p35 (human) (UniProt Q00535+Q15078); settings: compound 1.0 µM; ATP 15 µM
# RPS6KA5 KD1 KD2 (human) = RPS6KA5 KD1 KD2 (human) (UniProt O75582); settings: compound 1.0 µM; ATP 90 µM
# PRKX (human) = PRKX (human) (UniProt P51817); settings: compound 1.0 µM; ATP 200 µM
# PDGFRA (human) = PDGFRA (human) (UniProt P16234); settings: compound 1.0 µM; ATP 120 µM
# [2] = tested on: PAK2 (human), Q13177 [L150F, P225T, V383I; A339 del]; settings: compound 1.0 µM; ATP 90 µM
# PRKD2 (human) = PRKD2 (human) (UniProt Q9BZL6); settings: compound 1.0 µM; ATP 155 µM
# PRKCB1 (human) = PRKCB1 (human) (UniProt P05771); settings: compound 1.0 µM; ATP 10 µM
# CDK1 CCNB1 (human) = CDK1 CCNB1 (human) (UniProt P06493+P14635); settings: compound 1.0 µM; ATP 45 µM
# [3] = tested on: RPS6KB1 (human), P23443 [T412E]; settings: compound 1.0 µM; ATP 15 µM
# [4] = tested on: ROS1 (human), P08922 [V2262A]; settings: compound 1.0 µM; ATP 200 µM
# PAK7 (human) = PAK7 (human) (UniProt Q9P286); settings: compound 1.0 µM; ATP 15 µM
# NTRK1 (human) = NTRK1 (human) (UniProt P04629); settings: compound 1.0 µM; ATP 120 µM
# PAK6 (human) = PAK6 (human) (UniProt Q9NQU5); settings: compound 1.0 µM; ATP 10 µM
# DAPK2 (human) = DAPK2 (human) (UniProt Q9UIK4); settings: compound 1.0 µM; ATP 10 µM
# FGFR4 (human) = FGFR4 (human) (UniProt P22455); settings: compound 1.0 µM; ATP 155 µM
# FGFR1 (human) = FGFR1 (human) (UniProt P11362); settings: compound 1.0 µM; ATP 200 µM
# MAP2K7 (human) = MAP2K7 (human) (UniProt O14733); settings: compound 1.0 µM; ATP 10 µM
# FLT1 (human) = FLT1 (human) (UniProt P17948); settings: compound 1.0 µM; ATP 200 µM
# [5] = tested on: TEK (human), Q02763 [Q939H/Q940H]; settings: compound 1.0 µM; ATP 200 µM
# DAPK1 (human) = DAPK1 (human) (UniProt P53355); settings: compound 1.0 µM; ATP 70 µM
# PRKCG (human) = PRKCG (human) (UniProt P05129); settings: compound 1.0 µM; ATP 15 µM
# STK11 (human) = STK11 (human) (UniProt Q15831); settings: compound 1.0 µM; ATP 155 µM
# BTK (human) = BTK (human) (UniProt Q06187); settings: compound 1.0 µM; ATP 200 µM
# PIM1 (human) = PIM1 (human) (UniProt P11309); settings: compound 1.0 µM; ATP 90 µM
# IKBKB (human) = IKBKB (human) (UniProt O14920); settings: compound 1.0 µM; ATP 10 µM
# KIT (human) = KIT (human) (UniProt P10721); settings: compound 1.0 µM; ATP 200 µM
# [6] = tested on: ABL1 (human), P00519 [T315I]; settings: compound 1.0 µM; ATP 10 µM
# EPHB4 (human) = EPHB4 (human) (UniProt P54760); settings: compound 1.0 µM; ATP 10 µM
# PTK2B (human) = PTK2B (human) (UniProt Q14289); settings: compound 1.0 µM; ATP 90 µM
# [7] = tested on: DDR2 (human), Q16832 [S642A]; settings: compound 1.0 µM; ATP 200 µM
# SRPK2 (human) = SRPK2 (human) (UniProt P78362); settings: compound 1.0 µM; ATP 10 µM
# TSSK1B (human) = TSSK1B (human) (UniProt Q9BXA7); settings: compound 1.0 µM; ATP 15 µM
# SRPK3 (human) = SRPK3 (human) (UniProt Q9UPE1); settings: compound 1.0 µM; ATP 15 µM
# Chain of SRPK3 (human) (Q9UPE1 whole entry, looked up): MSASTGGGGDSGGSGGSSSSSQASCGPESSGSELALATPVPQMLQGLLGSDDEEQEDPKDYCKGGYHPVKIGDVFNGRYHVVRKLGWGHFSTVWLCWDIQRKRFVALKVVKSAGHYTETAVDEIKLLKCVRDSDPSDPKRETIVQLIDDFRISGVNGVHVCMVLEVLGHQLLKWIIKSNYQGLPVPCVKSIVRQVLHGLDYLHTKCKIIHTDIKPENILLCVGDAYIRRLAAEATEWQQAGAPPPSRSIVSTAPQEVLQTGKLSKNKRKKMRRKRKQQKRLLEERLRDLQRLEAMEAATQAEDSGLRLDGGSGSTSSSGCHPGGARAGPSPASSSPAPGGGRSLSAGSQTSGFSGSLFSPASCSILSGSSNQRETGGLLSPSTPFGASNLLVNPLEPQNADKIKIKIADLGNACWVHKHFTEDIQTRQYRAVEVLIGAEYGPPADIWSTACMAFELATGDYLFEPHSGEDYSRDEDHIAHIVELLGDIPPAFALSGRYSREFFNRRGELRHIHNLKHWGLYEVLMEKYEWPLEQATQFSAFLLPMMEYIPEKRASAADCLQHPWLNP
# Chain of DDR2 (human), Q16832 [S642A] (Q16832 whole entry, looked up, stated change not applied): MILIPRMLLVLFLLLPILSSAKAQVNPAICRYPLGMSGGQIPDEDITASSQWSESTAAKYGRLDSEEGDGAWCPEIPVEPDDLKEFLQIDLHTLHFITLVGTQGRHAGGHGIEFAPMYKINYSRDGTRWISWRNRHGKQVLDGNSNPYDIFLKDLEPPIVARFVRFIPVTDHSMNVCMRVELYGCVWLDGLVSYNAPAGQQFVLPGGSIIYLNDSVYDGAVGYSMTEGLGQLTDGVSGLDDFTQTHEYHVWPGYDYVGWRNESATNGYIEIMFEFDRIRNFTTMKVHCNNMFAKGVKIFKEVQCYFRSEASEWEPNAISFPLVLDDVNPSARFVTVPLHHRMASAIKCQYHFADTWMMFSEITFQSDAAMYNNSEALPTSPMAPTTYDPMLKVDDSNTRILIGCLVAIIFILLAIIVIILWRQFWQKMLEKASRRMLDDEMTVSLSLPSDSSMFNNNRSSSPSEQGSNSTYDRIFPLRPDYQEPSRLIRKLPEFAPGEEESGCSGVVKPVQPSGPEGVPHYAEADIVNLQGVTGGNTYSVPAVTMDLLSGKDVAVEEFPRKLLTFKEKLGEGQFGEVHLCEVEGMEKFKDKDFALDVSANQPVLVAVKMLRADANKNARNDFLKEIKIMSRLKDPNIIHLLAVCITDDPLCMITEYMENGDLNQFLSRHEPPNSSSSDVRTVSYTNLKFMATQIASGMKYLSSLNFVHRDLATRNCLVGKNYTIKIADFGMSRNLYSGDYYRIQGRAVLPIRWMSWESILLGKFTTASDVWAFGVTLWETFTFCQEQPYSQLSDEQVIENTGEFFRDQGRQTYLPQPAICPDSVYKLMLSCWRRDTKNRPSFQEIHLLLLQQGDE
# Chain of FGFR1 (human) (P11362 whole entry, looked up): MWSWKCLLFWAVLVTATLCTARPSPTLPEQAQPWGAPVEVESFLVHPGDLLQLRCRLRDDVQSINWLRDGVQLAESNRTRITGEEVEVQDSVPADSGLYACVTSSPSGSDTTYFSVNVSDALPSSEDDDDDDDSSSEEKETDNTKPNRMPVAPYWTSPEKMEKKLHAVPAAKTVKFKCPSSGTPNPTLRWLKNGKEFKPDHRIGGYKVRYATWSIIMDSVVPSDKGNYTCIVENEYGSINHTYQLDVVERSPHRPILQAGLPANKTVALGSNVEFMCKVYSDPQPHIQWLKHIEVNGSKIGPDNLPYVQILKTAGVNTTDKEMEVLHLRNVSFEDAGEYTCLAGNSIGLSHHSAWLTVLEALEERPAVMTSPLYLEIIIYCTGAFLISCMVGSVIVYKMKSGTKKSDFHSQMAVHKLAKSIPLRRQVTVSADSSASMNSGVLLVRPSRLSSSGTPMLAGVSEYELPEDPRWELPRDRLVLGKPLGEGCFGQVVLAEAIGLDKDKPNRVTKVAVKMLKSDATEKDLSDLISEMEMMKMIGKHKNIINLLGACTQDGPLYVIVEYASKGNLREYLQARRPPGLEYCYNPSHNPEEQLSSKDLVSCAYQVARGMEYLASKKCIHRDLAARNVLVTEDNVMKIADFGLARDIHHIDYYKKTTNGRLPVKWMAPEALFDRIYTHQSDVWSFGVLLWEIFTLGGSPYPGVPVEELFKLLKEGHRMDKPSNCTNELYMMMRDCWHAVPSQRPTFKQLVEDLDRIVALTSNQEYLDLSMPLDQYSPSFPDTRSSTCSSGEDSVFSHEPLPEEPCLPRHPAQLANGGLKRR
# Chain of PRKX (human) (P51817 whole entry, looked up): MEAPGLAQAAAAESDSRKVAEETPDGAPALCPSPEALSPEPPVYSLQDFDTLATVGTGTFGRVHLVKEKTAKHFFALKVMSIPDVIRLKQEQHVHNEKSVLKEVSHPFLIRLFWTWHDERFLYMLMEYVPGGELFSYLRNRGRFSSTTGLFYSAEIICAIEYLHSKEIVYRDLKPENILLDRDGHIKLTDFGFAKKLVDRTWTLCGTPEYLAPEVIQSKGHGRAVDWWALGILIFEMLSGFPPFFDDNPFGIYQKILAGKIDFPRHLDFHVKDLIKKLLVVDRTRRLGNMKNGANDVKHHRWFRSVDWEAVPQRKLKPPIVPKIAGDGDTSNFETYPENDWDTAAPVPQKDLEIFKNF
# Chain of FGFR4 (human) (P22455 whole entry, looked up): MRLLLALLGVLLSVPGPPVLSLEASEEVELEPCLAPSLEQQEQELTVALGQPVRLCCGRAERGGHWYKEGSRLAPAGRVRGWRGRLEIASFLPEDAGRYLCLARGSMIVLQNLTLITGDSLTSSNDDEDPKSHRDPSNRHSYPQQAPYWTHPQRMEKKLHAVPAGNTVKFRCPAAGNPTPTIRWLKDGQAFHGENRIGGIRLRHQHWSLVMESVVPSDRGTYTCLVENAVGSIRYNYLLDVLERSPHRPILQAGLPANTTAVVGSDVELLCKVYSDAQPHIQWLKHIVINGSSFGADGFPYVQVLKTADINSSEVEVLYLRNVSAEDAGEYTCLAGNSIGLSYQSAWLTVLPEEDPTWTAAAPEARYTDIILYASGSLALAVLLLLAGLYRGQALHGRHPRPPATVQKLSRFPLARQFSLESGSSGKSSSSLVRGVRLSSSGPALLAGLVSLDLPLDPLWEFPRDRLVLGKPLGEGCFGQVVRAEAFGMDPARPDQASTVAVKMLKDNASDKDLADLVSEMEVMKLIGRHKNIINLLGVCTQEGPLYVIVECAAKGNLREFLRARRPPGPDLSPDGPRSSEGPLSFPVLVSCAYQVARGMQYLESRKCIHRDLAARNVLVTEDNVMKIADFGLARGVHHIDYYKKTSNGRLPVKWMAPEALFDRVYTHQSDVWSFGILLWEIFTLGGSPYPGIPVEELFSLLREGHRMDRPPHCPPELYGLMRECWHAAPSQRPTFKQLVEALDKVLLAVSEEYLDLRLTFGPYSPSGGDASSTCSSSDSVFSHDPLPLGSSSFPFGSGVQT
# Chain of PRKD2 (human) (Q9BZL6 whole entry, looked up): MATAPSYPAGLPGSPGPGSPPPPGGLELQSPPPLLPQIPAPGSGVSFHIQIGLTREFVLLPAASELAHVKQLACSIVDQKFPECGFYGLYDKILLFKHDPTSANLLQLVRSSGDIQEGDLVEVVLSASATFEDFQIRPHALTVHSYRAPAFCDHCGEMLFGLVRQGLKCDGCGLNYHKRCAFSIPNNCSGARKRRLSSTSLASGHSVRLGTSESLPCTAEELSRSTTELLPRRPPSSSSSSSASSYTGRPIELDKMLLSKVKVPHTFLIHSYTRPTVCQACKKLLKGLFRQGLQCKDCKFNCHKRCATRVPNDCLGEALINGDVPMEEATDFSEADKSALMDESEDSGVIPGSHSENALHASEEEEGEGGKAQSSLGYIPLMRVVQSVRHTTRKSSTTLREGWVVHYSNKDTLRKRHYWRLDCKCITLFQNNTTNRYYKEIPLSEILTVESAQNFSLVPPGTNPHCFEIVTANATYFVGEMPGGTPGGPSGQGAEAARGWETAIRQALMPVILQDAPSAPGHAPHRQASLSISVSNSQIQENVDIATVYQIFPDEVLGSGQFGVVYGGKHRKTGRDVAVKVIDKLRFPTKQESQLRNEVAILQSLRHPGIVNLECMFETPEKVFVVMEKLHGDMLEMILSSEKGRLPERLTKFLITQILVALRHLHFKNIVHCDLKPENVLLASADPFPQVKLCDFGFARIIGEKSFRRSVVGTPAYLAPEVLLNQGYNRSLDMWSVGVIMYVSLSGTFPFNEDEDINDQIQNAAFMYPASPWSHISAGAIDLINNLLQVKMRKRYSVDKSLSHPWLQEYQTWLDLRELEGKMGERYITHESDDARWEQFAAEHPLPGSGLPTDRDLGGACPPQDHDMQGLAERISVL
compound,measurement,setting,value
CN(C)S(=O)(=O)Nc1ccc2ccc3ncc(-c4cnn(C)c4)cc3c(=O)c2c1,residual activity,PASK (human),91%
same,residual activity,PRKCE (human),103%
same,residual activity,[1],114%
same,residual activity,HCK (human),33%
same,residual activity,MAP3K9 (human),61%
same,residual activity,CDK5 CDK5R1 p35 (human),93%
same,residual activity,RPS6KA5 KD1 KD2 (human),101%
same,residual activity,PRKX (human),-12%
same,residual activity,PDGFRA (human),59%
same,residual activity,[2],100%
same,residual activity,PRKD2 (human),109%
same,residual activity,PRKCB1 (human),104%
same,residual activity,CDK1 CCNB1 (human),66%
same,residual activity,[3],81%
same,residual activity,[4],71%
same,residual activity,PAK7 (human),101%
same,residual activity,NTRK1 (human),1%
same,residual activity,PAK6 (human),109%
same,residual activity,DAPK2 (human),91%
same,residual activity,FGFR4 (human),88%
same,residual activity,FGFR1 (human),5%
same,residual activity,MAP2K7 (human),69%
same,residual activity,FLT1 (human),5%
same,residual activity,[5],66%
same,residual activity,DAPK1 (human),90%
same,residual activity,PRKCG (human),101%
same,residual activity,STK11 (human),134%
same,residual activity,BTK (human),83%
same,residual activity,PIM1 (human),101%
same,residual activity,IKBKB (human),98%
same,residual activity,KIT (human),78%
same,residual activity,[6],35%
same,residual activity,EPHB4 (human),103%
same,residual activity,PTK2B (human),101%
same,residual activity,[7],108%
same,residual activity,SRPK2 (human),104%
same,residual activity,TSSK1B (human),89%
same,residual activity,SRPK3 (human),83%
